# “Also recorded” adds a separate entry of the source.
# Legend:
# [1] = system: pregnant CD-1 mice; test: LPS-induced preterm birth (PTB) model in mice; assay type: in vivo, mouse; parameters: key to In vivo PTB (heatmap grade of efficacy): 0: No effect; No effect 01234 Maximum inhibition/efficacy; No effect 01234 Maximum inhibition/efficacy; No effect 01234 Maximum inhibition/efficacy; 4: Maximum inhibition/efficacy; details: for In vivo PTB (heatmap grade of efficacy): LPS 10 μg i.p. at G16.5, peptide 2 mg/kg/day s.c. every 12 h; for Activity in delaying labor in the PTB model: LPS i.p. at G16.5, 2 mg/kg/day s.c.
# Description: Timed-pregnant CD-1 mice at 16.5 days of gestation (G16.5) were anesthetized with 2% isoflurane and received an intraperitoneal injection of LPS (n = 4 per group, a single dose of 10 μg) (Nadeau-Vallée et al., [2015], and Kakinuma et al., [1997]). A dosage of 2 mg/kg/day of peptide 1, 5, or 6 or vehicle was injected subcutaneously in the neck, every 12 h until delivery. On G16.5, a dose of 1 mg/kg was injected 30 min before stimulation with LPS (to allow distribution of drugs to target tissues) and 1 mg/kg was injected 12 h after stimulation (n = 4 each treatment). Mice delivery was assessed every hour until term (G19–G19.5). A mouse is considered as delivering prematurely if the first pup is delivered earlier than G18.5.
# Figure 9 The effects of peptides 1, 5, and 6 on prevention of PTB. (A) Schematic of the CD-1 mouse PTB model. In brief, pregnant dams on day 16.5 of gestation (G16.5) were subcutaneously pretreated with peptides 1, 5, and 6 or vehicle, followed by LPS, and observed for delivery of pups. A dam was considered as delivering preterm if at least one pup was delivered before G18.5. (B) The rates of PTB in dams treated with peptides 1, 5, and 6 are grouped into (3R)- (left) and (3S)- (right) derivatives; n = 4–5 dams per treatment group.
# [2] = system: IL-1β; test: qPCR of IL-1β-induced IL-1β expression in HEK-Blue IL-33/IL-1β cells; assay type: cell-based, human; parameters: key to qPCR IL-1β (heatmap grade of inhibition): 0: No effect; No effect 01234 Maximum inhibition/efficacy; No effect 01234 Maximum inhibition/efficacy; No effect 01234 Maximum inhibition/efficacy; 4: Maximum inhibition/efficacy; details: for qPCR IL-1β (heatmap grade of inhibition): HEK-Blue cells, peptide 10^-6 M or Kineret 1.0 mg/mL 30 min, then IL-1β 100 ng/mL 4 h (legend: overnight); for Suppression of IL-1β transcription: HEK blue cells, 10^-6 M pre-treatment, IL-1β stimulation
# Description: (§1) HEK-Blue IL-33/IL-1β cells were purchased from InvivoGen (San Diego, CA) and used at passages under 15. HEK-Blue cells were cultured in DMEM growth medium supplemented with 10% serum, 50 U/mL penicillin, […] streptomycin, […] zeocin, and […] hygromycin. Cells were grown in regular conditions (37°C, 5% CO2). Cells were serum starved overnight and treated with 100 ng/mL IL-1β for 4 h. Cells were pre-incubated for 30 min with peptides 1, 5, or 6 (10^−6M) or Kineret (1.0 mg/mL) prior to the experiments to reach equilibrium (n = 4 each treatment). Cells were harvested and incubated for 5 min in RIBOzol (AMRESCO). RNA was extracted according to manufacturer's protocol and RNA concentration and integrity were measured with a NanoDrop 1,000 spectrophotometer. A total of 500 ng RNA was used to synthetize cDNA using iScript Reverse Transcription SuperMix (Bio-Rad, Hercules, CA). Quantitative gene expression analysis was performed on Stratagene MXPro3000 (Stratagene) with SYBR Green Master Mix (Bio-Rad). Gene expression levels were normalized to 18S universal primer (Ambion Life Technology, Burlington ON, Canada). Genes analyzed include IL1β, IL6, and PTGHS2 [Prostaglandin H synthetase 2 or cyclooxygenase-2 (COX-2)]. Data are representative of 3 experiments (each with n = 4 per treatment group).
# (§2) Figure 8 The effects of peptides 1, 5, and 6 on the expression of pro-inflammatory genes. HEK-Blue cells were pre-treated with peptides 1, 5, and 6 as above and stimulated with IL-1β overnight. qPCR was performed on cell lysates using 18S rRNA as internal control. Graphs are sorted in columns by gene of interest (COX-2, IL-1β, or IL-6) and rows by peptide configuration [(3R) or (3S)]. Results are representative of an average of 3 independent experiments (each with n = 4 per treatment group) and are expressed as a fold-change of the non-stimulated control: ^*p < 0.05, ^**p < 0.01, ^***p < 0.001, ^****p < 0.0001 compared to group treated only with IL-1β. Treatment groups that are not labeled with asterisks are statistically non-significant compared to group treated only with IL-1β.
# [3] = system: NF-κB; test: NF-κB QUANTI-Blue assay (secreted alkaline phosphatase reporter) in HEK-Blue IL-33/IL-1β cells; assay type: cell-based; parameters: key to Nf-κB (heatmap grade of inhibition): 0: No effect; No effect 01234 Maximum inhibition/efficacy; No effect 01234 Maximum inhibition/efficacy; No effect 01234 Maximum inhibition/efficacy; 4: Maximum inhibition/efficacy; details: for Nf-κB (heatmap grade of inhibition): HEK-Blue cells, peptide 10^-6 M or Kineret 1.0 mg/mL 30 min, then IL-1β 100 ng/mL 4 h, QUANTI-Blue
# Description: HEK-Blue IL-33/IL-1β cells (InvivoGen) were pretreated with peptides 1, 5, or 6 (10^−6M) or Kineret (1.0 mg/mL) for 30 min, followed by treatment with a constant concentration of IL-1β (100 ng/mL), and then incubated at 37°C for 4 h. Levels of secreted alkaline phosphatase in cell culture supernatant were determined using the QUANTI-Blue assay, according to the manufacturer's instructions (InvivoGen). Alkaline phosphatase activity was assessed by measuring the optical density (OD) at 620–655 nm with a micro plate reader (EnVision Multilabel reader; PerkinElmer, Waltham, MA). Data are representative of 3 experiments (each with n = 4 per treatment group).
# Figure 6 The effects of peptides 1, 5, and 6 on IL-1-induced NF-κB signaling. NF-κB activation was quantified on HEK-blue cells using the QUANTI-blue assay, which spectroscopically detects secreted alkaline phosphatase, a reporter product from the transcription of the NF-κB gene. HEK-blue cells were pre-incubated with peptides 1, 5, and 6 or vehicle, then stimulated with IL-1β for 4 h. Data shown represents the average of 3 experiments, each with n = 4 per treatment group. ^****p < 0.0001 compared to group treated only with IL-1β. Treatment groups that are not labeled with asterisks are statistically non-significant compared to group treated only with IL-1β.
# [4] = system: COX2; test: qPCR of IL-1β-induced COX-2 (PTGHS2) expression in HEK-Blue IL-33/IL-1β cells; assay type: cell-based, human; parameters: key to qPCR COX2 (heatmap grade of inhibition): 0: No effect; No effect 01234 Maximum inhibition/efficacy; No effect 01234 Maximum inhibition/efficacy; No effect 01234 Maximum inhibition/efficacy; 4: Maximum inhibition/efficacy; details: for qPCR COX2 (heatmap grade of inhibition): HEK-Blue cells, peptide 10^-6 M or Kineret 1.0 mg/mL 30 min, then IL-1β 100 ng/mL 4 h (legend: overnight); for Suppression of COX2 transcription: HEK blue cells, 10^-6 M pre-treatment, IL-1β stimulation
# Description: as §1, §2
Substance,In vivo PTB (heatmap grade of efficacy) [1],qPCR IL-1β (heatmap grade of inhibition) [2],Nf-κB (heatmap grade of inhibition) [3],qPCR COX2 (heatmap grade of inhibition) [4],Activity in delaying labor in the PTB model [1],Suppression of IL-1β transcription [2],Suppression of COX2 transcription [4],"Inhibition of IL-1-induced NF-κB signaling ([3]; HEK-blue cells, peptide 10^-6 M or Kineret 1.0 mg/mL, IL-1β 4 h, QUANTI-blue)"
"H-D-Arg-D-Tyr-(3R,4R)-Hgl-(S)-Val-D-Glu-D-Leu-D-Ala-NH2 [[(3R,4R)-Hgl^3-(S)-Val^4]-1]",0,3,0,4,–,–,–,–
"H-D-Arg-D-Tyr-(3R,4R)-Hgl-D-Val-D-Glu-D-Leu-D-Ala-NH2 [[(3R,4R)-Hgl^3]-1]",0,4,0,4,–,–,–,–
"H-D-Arg-D-Tyr-(3R,4S)-Hgl-(S)-Val-D-Glu-D-Leu-D-Ala-NH2 [[(3R,4S)-Hgl^3-(S)-Val^4]-1]",2,4,0,4,–,–,–,–
"H-D-Arg-D-Tyr-(3R,4S)-Hgl-D-Val-D-Glu-D-Leu-D-Ala-NH2 [[(3R,4S)-Hgl^3]-1]",4,4,0,4,best activity,–,–,–
"H-D-Arg-D-Tyr-(3S,4R)-Hgl-D-Val-D-Glu-D-Leu-D-Ala-NH2 [[(3S,4R)-Hgl^3]-1]",4,4,0,4,best activity,–,–,–
H-D-Arg-D-Tyr-(R)-Agl-(S)-Val-D-Glu-D-Leu-D-Ala-NH2 [[(3R)-Agl^3-(S)-Val^4]-1],0,1,0,1,–,ability to suppress the transcription of all three genes was lost,ability to suppress the transcription of all three genes was lost,–
H-D-Arg-D-Tyr-(R)-Agl-D-Val-D-Glu-D-Leu-D-Ala-NH2 [[(3R)-Agl^3]-1],4,4,0,3,high potency; also recorded: best activity,–,–,–
H-D-Arg-D-Tyr-(S)-Agl-(S)-Val-D-Glu-D-Leu-D-Ala-NH2 [[(3S)-Agl^3-(S)-Val^4]-1],0,1,0,1,–,ability to suppress the transcription of all three genes was lost,ability to suppress the transcription of all three genes was lost,–
H-D-Arg-D-Tyr-(S)-Agl-D-Val-D-Glu-D-Leu-D-Ala-NH2 [[(3S)-Agl^3]-1],4,4,0,4,high potency; also recorded: best activity,–,–,–
H-D-Arg-D-Tyr-D-Thr-D-Val-D-Glu-D-Leu-D-Ala-NH2 [Peptide 1],4,4,0,4,–,strong suppression of transcription of all three genes,strong suppression of transcription of all three genes,–
Kineret: FDA-approved recombinant IL-1 receptor antagonist,0,4,4,4,–,–,–,inhibited NF-κB

# Reference: article PMC6381024, “Probing Anti-inflammatory Properties Independent of NF-κB Through Conformational Constraint of Peptide-Based Interleukin-1 Receptor Biased Ligands” (Frontiers in Chemistry, 2019)
